Results taken from patent US20230181609A1, “IMMUNOMODULATORY OLIGOSACCHARIDES” (The Regents of the University of California, priority 2017, published 2023).

Experiments:
[1] = tested on: IL-6 and IL-1β mRNA expression in LPS-activated RAW 264.7 cells; test: Pro-inflammatory cytokine mRNA expression (RT-PCR) in LPS-stimulated RAW 264.7 macrophages; type: cell-based, murine
Description: RAW246.7 cells were exposed to LPS either alone or in combination with either pooled human milk oligosaccharides (HMOs), or 3′-sialyllactose (3′SL) or 2′-fucosyllactose (2′FL). After 6 hours, IL-6 (A) and IL-1β (B) mRNA levels were measured by RT-PCR and are plotted as mean±standard deviation (n=8) relative the respective mRNA levels in cells that were exposed to LPS alone (**p<0.01; ***p<0.001). HMOs are a group of more than 150 different structurally distinct oligosaccharides and their composition follows a basic structural blueprint (C), containing five monosaccharide building blocks: glucose (dark gray circle), galactose (light gray circle), N-acetylglucosamine (dark gray square), fucose (gray triangle) and sialic acid (gray diamond). 3′SL contains lactose with sialic acid at the terminal end; 2′FL contains lactose with fucose at the terminal end.
Oligosaccharides Reduce Pro-Inflammatory Cytokine mRNA Expression in Stimulated Macrophages. HMOs were first isolated and purified from pooled human donor milk (pHMO) by using polymixin B affinity chromatography to remove any lipopolysaccharide (LPS) contamination. RAW 264.7 cells, a murine macrophage cell line, were then incubated with LPS (10 ng/mL) and pHMO (500 ηg/mL) for 6 hours. RT-PCR was used to measure cytokine mRNA expression.
A multi-dimensional chromatography approach was used that separates pHMO first by charge and then by size. […] To exclude that the observed effect was due to impurities or contaminations from the isolation process, the results were confirmed with synthetized and commercially available 3′SL. […] Other oligosaccharides like 2′-fucosyllactose (2′FL), where the terminal monosaccharide is fucose instead of sialic acid (see FIG. 1C), had no effect, emphasizing that the anti-inflammatory effect of 3′SL in macrophages is specific to the structure of 3′SL.

[2] = tested on: primary mouse cells (bone marrow derived macrophages); test: Pro-inflammatory cytokine expression in primary mouse bone marrow derived macrophages; type: cell-based
Source text: (§1) Accordingly, the results with 3′SL translate to primary cells as well as to human macrophages.

[3] = tested on: human THP-1 monocytic cell line; test: Pro-inflammatory cytokine expression in human THP-1 monocytic cell line; type: cell-based
Source text: as §1

[4] = tested on: collagen antibody-induced arthritis (CAIA); test: Collagen antibody-induced arthritis (CAIA) mouse model; type: in vivo, female BALB/c mice
Description: Oral gavage of 3′SL (20 mg thrice daily, beginning at the time of LPS trigger) reduces baseline-corrected ankle swelling (A) and clinical pathology score 28 (B) over the course of the study. […] (*p<0.05, **p<0.01, ***p<0.001).
Rheumatoid Arthritis In vivo Experimental Design. Macrophages and the pro-inflammatory cytokines IL-6 and IL-1β are known to perform a major role in the development and progression of joint destruction in animal models and patients with RA. […] Next, it was asked whether or not the in vitro results translate to an in vivo model. 3′SL efficacy in a collagen antibody-induced arthritis (CAIA) model was tested in mice. In the CAIA model, arthritis is induced by systemic administration of a cocktail of monoclonal antibodies that target various regions of collagen type II, which is one of the major constituents of articular cartilage matrix proteins, followed by the administration of endotoxin (LPS) on day 3. The high uptake rate in the CAIA model and the capacity to synchronize the development of arthritis from the time of antibody injection, makes this a relatively straightforward model that is used to address questions of pathogenic mechanisms and to screen candidate therapeutic agents.
8-week old female BALB/c mice were injected with 1.5 mg of Arthrogen-CIA monoclonal antibody cocktail (Chondrex, Inc.). Three days later, the mice were injected with 25 μg of LPS. Beginning with the time of LPS administration and followed for the next 11 consecutive days, mice were orally gavaged thrice daily with either 3′SL (20 mg in saline) or saline alone as control. With the tester blinded to the study groups, arthritis in each limb was determined once per day. […] By adding together, the scores of all four limbs, the maximum score per mouse is 28. In addition, a caliper was placed across the ankle joint at the widest point to measure ankle thickness in both hind limbs daily. 14 days after antibody cocktail administration, mice were euthanized and hind paws collected and processed for histology. H&E—as well as Toluidine blue-stained sections were scored from 0 to 4 for inflammation, bone erosion and cartilage depletion based on a previously validated scoring system.

[5] = background statement; cited from earlier work
[6] = RAW 264.7 cells, LPS 10 ng/mL, 6 hours, compared to LPS alone
[7] = 20 mg in saline, oral gavage thrice daily from LPS administration, vs saline
[8] = hind paws, day 14, scored 0 to 4, 20 mg oral gavage thrice daily

IC50 for reducing IL-6 and IL-1β mRNA expression (dose-range finding studies) ([1]; LPS-stimulated macrophages) | SMILES | IL-1β mRNA level [1, 6] | IL-6 mRNA level [1, 6] | pro-inflammatory cytokine expression [2] | pro-inflammatory cytokine expression [3] | Baseline-corrected ankle thickness (paw swelling) [4, 7] | clinical index score 28 [4, 7] | adverse effects ([4]; 14-day study period, 20 mg oral gavage thrice daily) | histology score for cartilage damage [4, 8] | histology score for erosion [4, 8] | histology score for inflammation [4, 8] | digestion in the stomach and absorption [5] | tolerability [5]
around 15 μg/mL | CC(=O)N[C@H]1[C@H]([C@H](O)[C@H](O)CO)O[C@@](O[C@H]2[C@@H](O)[C@@H](CO)O[C@@H](O[C@H]3[C@H](O)[C@@H](O)C(O)O[C@@H]3CO)[C@@H]2O)(C(=O)O)C[C@@H]1O (stereo partly shown) [3′SL, 3′-sialyllactose] | most effective | most effective | reduced | reduced | significantly reduced | significantly reduced | No adverse effects | significantly lower | significantly lower | significantly lower | – | –
– | CC(=O)N[C@H]1[C@H](O[C@H]2[C@@H](O)[C@@H](CO)O[C@@H](O[C@H]3[C@H](O)[C@@H](O)C(O)O[C@@H]3CO)[C@@H]2O)O[C@H](CO)[C@@H](O[C@@H]2O[C@H](CO)[C@H](O)[C@H](O)[C@H]2O)[C@@H]1O (mixture of isomers) [LNnT, lacto-N-(neo)tetraose] | – | – | – | – | – | – | – | – | – | – | remain undigested in the stomach and are absorbed intact in the lower gastrointestinal tract | well tolerated
